Laboratory results reported in patent US6355799B1, “Substituted benzene compounds, process for their preparation, and herbicidal and defoliant compositions containing them” (ISK Americas Incorporated, priority 1997, dated 2002).

How the values were obtained:
Format in all cases: in vivo
[1] = system: field corn (Zea mays L., var. Dekalb 535, CORN); test: Pre-emerge test, crop safety; conditions: pre-emerge, rated 14 days after application, 0 = no damage, 100 = complete death
Summary of the method: (§1)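 Applied at 15–1000 g ai/ha from acetone in 187 l/ha spray volume. Post-emergence applications included 0.25% v/v non-ionic surfactant and reached plants sown 8–21 days before. Pre-emergence applications were incorporated by surface watering. Efficacy or crop damage was rated on a 0–100 scale after 14 days.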

[2] = system: upland rice (Oryza sp., var. Tebonnet, RICE); test: Pre-emerge test, crop safety; conditions: pre-emerge, rated 14 days after application, 0 = no damage, 100 = complete death
Summary of the method: as §1

[3] = system: green foxtail (Setaria viridis, SETVI); test: Pre-emerge test, greenhouse herbicide activity screening; conditions: pre-emerge, rated 14 days after application, 0 = no damage, 100 = complete death
Summary of the method: (§2)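 Compounds in acetone were track-sprayed at 15-1000 g ai/ha (187 l/ha) on sandy loam pots: pre-emerge one day after seeding, post-emerge at 2-3 leaf stage with 0.25% v/v non-ionic surfactant. Phytotoxicity was rated 14 days later on a 0 (no damage) to 100 (complete death) scale.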

[4] = system: johnsongrass (Sorghum halepense, SORHA); test: as above; conditions: pre-emerge, rated 14 days after application, 0 = no damage, 100 = complete death
Summary of the method: as §2

[5] = system: lambsquarters (Chenopodium album, CHEAL); test: as above; conditions: pre-emerge, rated 14 days after application, 0 = no damage, 100 = complete death
Summary of the method: as §2

[6] = system: ivyleaf morningglory (Ipomoea hederacea, IPOHE); test: as above; conditions: pre-emerge, rated 14 days after application, 0 = no damage, 100 = complete death
Summary of the method: as §2

[7] = system: large crabgrass (Digitaria sanguinalis, DIGSA); test: as above; conditions: pre-emerge, rated 14 days after application, 0 = no damage, 100 = complete death
Summary of the method: as §2

[8] = system: sicklepod (Cassia obtusifolia, CASOB); test: as above; conditions: pre-emerge, rated 14 days after application, 0 = no damage, 100 = complete death
Summary of the method: as §2

[9] = system: barnyardgrass (Echinochloa crus-galli, ECHCG); test: as above; conditions: pre-emerge, rated 14 days after application, 0 = no damage, 100 = complete death
Summary of the method: as §2

[10] = system: velvetleaf (Abutilon theophrasti, ABUTH); test: as above; conditions: pre-emerge, rated 14 days after application, 0 = no damage, 100 = complete death
Summary of the method: as §2

[11] = system: field corn (Zea mays L., var. Dekalb 535, CORN); test: Post-emerge test, crop safety; conditions: phytotoxicity rating 0-100 (0 no damage, 100 complete death), 14 days after application
Summary of the method: as §2

[12] = system: upland rice (Oryza sp., var. Tebonnet, RICE); test: Post-emerge test, crop safety; conditions: phytotoxicity rating 0-100 (0 no damage, 100 complete death), 14 days after application
Summary of the method: as §2

[13] = system: green foxtail (Setaria viridis, SETVI); test: Post-emerge test, greenhouse herbicide activity screening; conditions: phytotoxicity rating 0-100 (0 no damage, 100 complete death), 14 days after application
Summary of the method: (§3)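 Each test used a mechanized track sprayer delivering 187 l/ha of acetone solution at 15–1000 g ai/ha. Post-emerge foliage at 2–3 leaves was treated with added 0.25% v/v non-ionic surfactant and bottom-watered only. Injury was assessed on day 14, where 100 means total kill.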

[14] = system: johnsongrass (Sorghum halepense, SORHA); test: as above; conditions: phytotoxicity rating 0-100 (0 no damage, 100 complete death), 14 days after application
Summary of the method: as §3

[15] = system: lambsquarters (Chenopodium album, CHEAL); test: as above; conditions: phytotoxicity rating 0-100 (0 no damage, 100 complete death), 14 days after application
Summary of the method: as §3

[16] = system: ivyleaf morningglory (Ipomoea hederacea, IPOHE); test: as above; conditions: phytotoxicity rating 0-100 (0 no damage, 100 complete death), 14 days after application
Summary of the method: as §3

[17] = system: large crabgrass (Digitaria sanguinalis, DIGSA); test: as above; conditions: phytotoxicity rating 0-100 (0 no damage, 100 complete death), 14 days after application
Summary of the method: as §3

[18] = system: sicklepod (Cassia obtusifolia, CASOB); test: as above; conditions: phytotoxicity rating 0-100 (0 no damage, 100 complete death), 14 days after application
Summary of the method: as §3

[19] = system: barnyardgrass (Echinochloa crus-galli, ECHCG); test: as above; conditions: phytotoxicity rating 0-100 (0 no damage, 100 complete death), 14 days after application
Summary of the method: as §3

[20] = system: velvetleaf (Abutilon theophrasti, ABUTH); test: as above; conditions: phytotoxicity rating 0-100 (0 no damage, 100 complete death), 14 days after application
Summary of the method: as §3

[21] = system: redroot pigweed (Amaranthus retroflexus, AMARE); test: as above; conditions: phytotoxicity rating 0-100 (0 no damage, 100 complete death), 14 days after application
Summary of the method: as §3

[22] = system: redroot pigweed (Amaranthus retroflexus, AMARE); test: Pre-emerge test, greenhouse herbicide activity screening; conditions: pre-emerge, rated 14 days after application, 0 = no damage, 100 = complete death
Summary of the method: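 Visual ratings on a 0-100 scale (0 no damage, 100 all plants dead) were taken at 14 days after treatment. Rates of 15-1000 g ai/ha in acetone, 187 l/ha, were sprayed onto soil one day after planting (pre-emerge) or onto 2-3 leaf plants with 0.25% v/v surfactant (post-emerge).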

C=CC(=O)N(C(=O)C=C)c1c(OC)c(Cl)cc(F)c1-n1c(=O)cc(C(F)(F)F)n(C)c1=O [2-4]
30: Pre-emerge Herbicidal Activity ABUTH (phytotoxicity rating, scale 0-100) ([10]; 63 g ai/ha)
50: Pre-emerge Herbicidal Activity CHEAL (phytotoxicity rating, scale 0-100) ([5]; 63 g ai/ha) | Pre-emerge Herbicidal Activity DIGSA (phytotoxicity rating, scale 0-100) ([7]; 250 g ai/ha) | Post-emerge Herbicidal Activity CHEAL ([15]; 63 g ai/ha) | Post-emerge Herbicidal Activity CHEAL ([15]; 250 g ai/ha) | Post-emerge Herbicidal Activity ABUTH ([20]; 250 g ai/ha)
10: Pre-emerge crop damage RICE (phytotoxicity rating, scale 0-100) ([2]; 250 g ai/ha) | Post-emerge Herbicidal Activity SORHA ([14]; 63 g ai/ha) | Post-emerge Herbicidal Activity SORHA ([14]; 250 g ai/ha)
95: Pre-emerge Herbicidal Activity AMARE (phytotoxicity rating, scale 0-100) ([22]; 250 g ai/ha)
80: Pre-emerge Herbicidal Activity SETVI (phytotoxicity rating, scale 0-100) ([3]; 250 g ai/ha) | Pre-emerge Herbicidal Activity AMARE (phytotoxicity rating, scale 0-100) ([22]; 63 g ai/ha)
100: Pre-emerge Herbicidal Activity CHEAL (phytotoxicity rating, scale 0-100) ([5]; 250 g ai/ha) | Pre-emerge Herbicidal Activity ABUTH (phytotoxicity rating, scale 0-100) ([10]; 250 g ai/ha)
20: Pre-emerge crop damage CORN (phytotoxicity rating, scale 0-100) ([1]; 250 g ai/ha) | Pre-emerge Herbicidal Activity IPOHE (phytotoxicity rating, scale 0-100) ([6]; 63 g ai/ha) | Post-emerge Herbicidal Activity IPOHE ([16]; 250 g ai/ha)
0: Pre-emerge crop damage CORN (phytotoxicity rating, scale 0-100) ([1]; 63 g ai/ha) | Pre-emerge crop damage RICE (phytotoxicity rating, scale 0-100) ([2]; 63 g ai/ha) | Pre-emerge Herbicidal Activity SETVI (phytotoxicity rating, scale 0-100) ([3]; 63 g ai/ha) | Pre-emerge Herbicidal Activity SORHA (phytotoxicity rating, scale 0-100) ([4]; 63 g ai/ha) | Pre-emerge Herbicidal Activity SORHA (phytotoxicity rating, scale 0-100) ([4]; 250 g ai/ha) | Pre-emerge Herbicidal Activity DIGSA (phytotoxicity rating, scale 0-100) ([7]; 63 g ai/ha) | Pre-emerge Herbicidal Activity CASOB (phytotoxicity rating, scale 0-100) ([8]; 63 g ai/ha) | Pre-emerge Herbicidal Activity CASOB (phytotoxicity rating, scale 0-100) ([8]; 250 g ai/ha) | Pre-emerge Herbicidal Activity ECHCG (phytotoxicity rating, scale 0-100) ([9]; 63 g ai/ha) | Pre-emerge Herbicidal Activity ECHCG (phytotoxicity rating, scale 0-100) ([9]; 250 g ai/ha) | Post-emerge Herbicidal Activity CORN (crop damage) ([11]; 63 g ai/ha) | Post-emerge Herbicidal Activity CORN (crop damage) ([11]; 250 g ai/ha) | Post-emerge Herbicidal Activity RICE (crop damage) ([12]; 63 g ai/ha) | Post-emerge Herbicidal Activity RICE (crop damage) ([12]; 250 g ai/ha) | Post-emerge Herbicidal Activity SETVI ([13]; 63 g ai/ha) | Post-emerge Herbicidal Activity SETVI ([13]; 250 g ai/ha) | Post-emerge Herbicidal Activity IPOHE ([16]; 63 g ai/ha) | Post-emerge Herbicidal Activity DIGSA ([17]; 63 g ai/ha) | Post-emerge Herbicidal Activity DIGSA ([17]; 250 g ai/ha) | Post-emerge Herbicidal Activity CASOB ([18]; 63 g ai/ha) | Post-emerge Herbicidal Activity CASOB ([18]; 250 g ai/ha) | Post-emerge Herbicidal Activity ECHCG ([19]; 63 g ai/ha) | Post-emerge Herbicidal Activity ECHCG ([19]; 250 g ai/ha) | Post-emerge Herbicidal Activity ABUTH ([20]; 63 g ai/ha) | Post-emerge Herbicidal Activity AMARE ([21]; 63 g ai/ha)
70: Pre-emerge Herbicidal Activity IPOHE (phytotoxicity rating, scale 0-100) ([6]; 250 g ai/ha) | Post-emerge Herbicidal Activity AMARE ([21]; 250 g ai/ha)
